Data as given in PubChem BioAssay AID1259411 (Chemical Carcinogenesis Research Information System (CCRIS), 2018).
Calls of active or inactive are those of the source. No rule for the calls is given here.

Test system: rodent carcinogenicity bioassays, tumor incidence
Test: CCRIS carcinogenicity studies
In short: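 Archive of carcinogenicity, mutagenicity, tumor promotion and tumor inhibition results drawn from journals, NCI reports and other sources, expert-reviewed; covers 1985-2011 and is no longer updated.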

Question: How did the carcinogen call (Species: MOUSE, Strain/Sex: CD-1/FEMALE, Route: INTRAPERITONEAL, Dose: 0, 0.25, 0.5, 1.0 UMOL IN DMSO TO NEWBORN MICE ON DAYS 1, 8 AND 15 OF LIFE RESPECTIVELY (TOTAL DOSE: 1.75 UMOL) (STUDY D, Dose: 0, 0.25, 0.5, 1.0 UMOL IN DMSO TO NEWBORN MICE ON DAYS 1, 8 AND 15 OF LIFE RESPECTIVELY (TOTAL DOSE: 1.75 UMOL) (STUDY D) turn out when `Cc1cccc2cccnc12` was run?
Answer: inactive; negative

Question: And the carcinogen call (Species: MOUSE, Strain/Sex: CD-1/MALE, Route: INTRAPERITONEAL, Dose: 0, 0.25, 0.5, 1.0 UMOL IN DMSO TO NEWBORN MICE ON DAYS 1, 8 AND 15 OF LIFE RESPECTIVELY (TOTAL DOSE: 1.75 UMOL) (STUDY D, Dose: 0, 0.25, 0.5, 1.0 UMOL IN DMSO TO NEWBORN MICE ON DAYS 1, 8 AND 15 OF LIFE RESPECTIVELY (TOTAL DOSE: 1.75 UMOL) (STUDY D)?
Answer: inactive; negative

Question: And the carcinogen call (Species: RAT, Strain/Sex: F344/MALE,FEMALE, Route: ORAL, Dose: 0.05% IN DIET FOR 2 YR)?
Answer: inactive; negative

Question: And the carcinogen call (Species: RAT, Strain/Sex: SPRAGUE-DAWLEY/MALE, Route: SUBCUTANEOUS, Dose: 0, 200 UMOL/KG IN DMSO INTO SUPRASCAPULAR AREA ON DAY 1 OF LIFE FOLLOWED BY 0, 100 UMOL 1/WK AT WK 2-7 THEN 0, 200 UMOL/, Dose: 0, 200 UMOL/KG IN DMSO INTO SUPRASCAPULAR AREA ON DAY 1 OF LIFE FOLLOWED BY 0, 100 UMOL 1/WK AT WK 2-7 THEN 0, 200 UMOL/)?
Answer: inactive; negative

Question: What about the carcinogen call (Species: SPRAGUE-DAWLEY/MALE, Strain/Sex: SPRAGUE-DAWLEY/FEMALE, Route: SUBCUTANEOUS, Dose: 0, 200 UMOL/KG IN DMSO INTO SUPRASCAPULAR AREA ON DAY 1 OF LIFE FOLLOWED BY 0, 100 UMOL 1/WK AT WK 2-7 THEN 0, 200 UMOL/, Dose: 0, 200 UMOL/KG IN DMSO INTO SUPRASCAPULAR AREA ON DAY 1 OF LIFE FOLLOWED BY 0, 100 UMOL 1/WK AT WK 2-7 THEN 0, 200 UMOL/) of the same compound?
Answer: inactive; negative

Question: With `CCCCCCCCCN(C)N=O` as the compound, how does the carcinogen call (Species: RAT, Strain/Sex: F344/MALE, Route: GAVAGE, Dose: 0, 100 MG/ML IN CORN OIL 2/WK FOR 30 WK, STUDY DURATION: 60 WK, Dose: 0, 100 MG/ML IN CORN OIL 2/WK FOR 30 WK, STUDY DURATION: 60 WK, Tumor Site: Type of Lesion: LUNG: ADENOCARCINOMA, NASAL CAVITY: CARCINOMA, PAPILLOMA, LIVER: CHOLANGIOCARCINOMA, HEPATOCELLULAR TUMOR, Tumor Site: Type of Lesion: LUNG: ADENOCARCINOMA, NASAL CAVITY: CARCINOMA, PAPILLOMA, LIVER: CHOLANGIOCARCINOMA, HEPATOCELLULAR TUMOR) read?
Answer: active; positive

Question: How did the carcinogen call (Species: MOUSE, Strain/Sex: B6C3F1/MALE, Route: INTRAPERITONEAL, Dose: 0, 400 NMOL IN 35 µL DMSO ON DAYS 1 (1/7 TOTAL DOSE), 8 (2/7 TOTAL DOSE), AND 15 (4/7 TOTAL DOSE) AFTER BIRTH (STUDY DUR) turn out when `O=[N+]([O-])c1c2ccccc2cc2c3ccccc3c3ccccc3c12` was run?
Answer: inactive; negative

Question: For `C/C=C1/C[C@@H](C)[C@@](C)(O)C(=O)OC/C2=C/CN(C)CC[C@@H](OC1=O)C2=O`, which carcinogen call (Species: RAT, Strain/Sex: ACI/MALE, Route: INTRAPERITONEAL, Dose: 22 MG/KG IN SALINE 2/WK FOR 4 WK, THEN 1/WK FOR 52 WK, Tumor Site: Type of Lesion: LIVER: ADENOMA) is on record?
Answer: active; positive

Question: Which carcinogen call (Species: MOUSE, Strain/Sex: B6C3F1/FEMALE, Route: ORAL, Dose: 0, 76, 152 PPM IN DIET, TWA, Dose: 0, 76, 152 PPM IN DIET, TWA) does the source give for `CCC[CH2][Sn]([CH2]CCC)([O]C(C)=O)[O]C(C)=O` here?
Answer: inactive; negative

Question: What about the carcinogen call (Species: MOUSE, Strain/Sex: B6C3F1/MALE, Route: ORAL, Dose: 0, 76, 152 PPM IN DIET, TWA, Dose: 0, 76, 152 PPM IN DIET, TWA) of the same compound?
Answer: inactive; negative

Question: What about the carcinogen call (Species: RAT, Strain/Sex: F344/MALE, Route: ORAL, Dose: 0, 66.5, 133 PPM IN DIET, TWA, Dose: 0, 66.5, 133 PPM IN DIET, TWA) of the same compound?
Answer: inactive; negative

Question: With `C=CCc1ccc(O)c(OC)c1` as the compound, how does the carcinogen call (Species: MOUSE, Strain/Sex: B6C3F1/FEMALE, Route: ORAL, Dose: 0, 3000, 6000 PPM IN DIET FOR 103 WK (STUDY DURATION: 103 WK), Dose: 0, 3000, 6000 PPM IN DIET FOR 103 WK (STUDY DURATION: 103 WK), Tumor Site: Type of Lesion: LIVER: HEPATOCELLULAR ADENOMA OR CARCINOMA) read?
Answer: equivocal

Question: What about the carcinogen call (Species: MOUSE, Strain/Sex: B6C3F1/MALE, Route: ORAL, Dose: 0, 3000, 6000 PPM IN DIET FOR 103 WK (STUDY DURATION: 103 WK), Dose: 0, 3000, 6000 PPM IN DIET FOR 103 WK (STUDY DURATION: 103 WK), Tumor Site: Type of Lesion: LIVER: HEPATOCELLULAR ADENOMA, HEPATOCELLULAR CARCINOMA) of the same compound?
Answer: equivocal

Question: What about the carcinogen call (Species: RAT, Strain/Sex: F344/FEMALE, Route: ORAL, Dose: 0, 6000, 12500 PPM IN DIET FOR 103 WK (STUDY DURATION: 103 WK), Dose: 0, 6000, 12500 PPM IN DIET FOR 103 WK (STUDY DURATION: 103 WK)) of the same compound?
Answer: inactive; negative

Question: And the carcinogen call (Species: RAT, Strain/Sex: F344/MALE, Route: ORAL, Dose: 0, 3000, 6000 PPM IN DIET FOR 103 WK (STUDY DURATION: 103 WK), Dose: 0, 3000, 6000 PPM IN DIET FOR 103 WK (STUDY DURATION: 103 WK))?
Answer: inactive; negative

Question: What does the source list for `NC(Cc1cnc[nH]1)C(=O)O` (stereo not drawn)?
Answer: carcinogen call (Species: RAT, Strain/Sex: F344/FEMALE, Route: ORAL, Dose: 0, 1.25, 2.5% IN DIET FOR 104 WK (STUDY DURATION: 107 WK), Dose: 0, 1.25, 2.5% IN DIET FOR 104 WK (STUDY DURATION: 107 WK)): inactive; negative; carcinogen call (Species: RAT, Strain/Sex: F344/MALE, Route: ORAL, Dose: 0, 1.25, 2.5% IN DIET FOR 104 WK (STUDY DURATION: 107 WK), Dose: 0, 1.25, 2.5% IN DIET FOR 104 WK (STUDY DURATION: 107 WK)): inactive; negative

Question: `Cc1c(N)nc(C(CC(N)=O)NCC(N)C(N)=O)nc1C(=O)NC(C(=O)NC(C)C(O)C(C)C(=O)NC(C(=O)NCCc1nc(-c2nc(C(=O)NCCC[S+](C)C)cs2)cs1)C(C)O)C(O[C@@H]1O[C@@H](CO)[C@@H](O)[C@H](O)[C@@H]1O[C@H]1O[C@H](CO)[C@@H](O)[C@H](OC(N)=O)[C@@H]1O)c1cnc[nH]1` (stereo partly drawn) was tested. Which carcinogen call (Species: RAT, Strain/Sex: SPRAGUE-DAWLEY/FEMALE, Route: SUBCUTANEOUS, Dose: 0, 0.35, 0.7, 1.40, 2.8 MG/KG IN SALINE 1/WK FOR 10 WK THEN 1/2 WK FOR 52 WK OR FOR LIFETIME (STUDY DURATION: 650 D), Dose: 0, 0.35, 0.7, 1.40, 2.8 MG/KG IN SALINE 1/WK FOR 10 WK THEN 1/2 WK FOR 52 WK OR FOR LIFETIME (STUDY DURATION: 650 D), Tumor Site: Type of Lesion: KIDNEY: MALIGNANT OR BENIGN TUMOR, INJECTION SITE: MALIGNANT TUMOR) did it give?
Answer: active; positive

Question: What about the carcinogen call (Species: RAT, Strain/Sex: SPRAGUE-DAWLEY/MALE, Route: SUBCUTANEOUS, Dose: 0, 0.35, 0.70, 1.40, 2.8 MG/KG IN SALINE 1/WK FOR 10 WK THEN 1/2 WK FOR 52 WK OR FOR LIFETIME (STUDY DURATION: 650 D), Dose: 0, 0.35, 0.70, 1.40, 2.8 MG/KG IN SALINE 1/WK FOR 10 WK THEN 1/2 WK FOR 52 WK OR FOR LIFETIME (STUDY DURATION: 650 D), Tumor Site: Type of Lesion: KIDNEY: MALIGNANT OR BENIGN TUMOR, INJECTION SITE: MALIGNANT TUMOR) of the same compound?
Answer: active; positive

Question: What does the source list for `c1ccc(NNc2ccccc2)cc1`?
Answer: carcinogen call (Species: MOUSE, Strain/Sex: B6C3F1/FEMALE, Route: ORAL, Dose: 0, 0.004, 0.04% TWA, IN DIET FOR 78 WK (STUDY DURATION: 95-96 WK), Dose: 0, 0.004, 0.04% TWA, IN DIET FOR 78 WK (STUDY DURATION: 95-96 WK), Tumor Site: Type of Lesion: LIVER: HEPATOCELLULAR ADENOMA OR CARCINOMA): active; positive; carcinogen call (Species: MOUSE, Strain/Sex: B6C3F1/MALE, Route: ORAL, Dose: 0, 0.008, 0.04% TWA, IN DIET FOR 78 WK (STUDY DURATION: 85 WK), Dose: 0, 0.008, 0.04% TWA, IN DIET FOR 78 WK (STUDY DURATION: 85 WK)): inactive; negative; carcinogen call (Species: RAT, Strain/Sex: F344/FEMALE, Route: ORAL, Dose: 0, 0.004, 0.01% TWA, IN DIET FOR 78 WK (STUDY DURATION: 107-108 WK), Dose: 0, 0.004, 0.01% TWA, IN DIET FOR 78 WK (STUDY DURATION: 107-108 WK), Tumor Site: Type of Lesion: LIVER: NEOPLASTIC NODULE): active; positive; carcinogen call (Species: RAT, Strain/Sex: F344/MALE, Route: ORAL, Dose: 0, 0.008, 0.03% TWA, IN DIET FOR 78 WK (STUDY DURATION: 106-107 WK), Dose: 0, 0.008, 0.03% TWA, IN DIET FOR 78 WK (STUDY DURATION: 106-107 WK), Tumor Site: Type of Lesion: LIVER: NEOPLASTIC NODULE OR HEPATOCELLULAR CARCINOMA, ADRENAL GLAND: PHEOCHROMOCYTOMA OR MALIGNANT PHEOCHROMOCYTOMA, EAR, Tumor Site: Type of Lesion: LIVER: NEOPLASTIC NODULE OR HEPATOCELLULAR CARCINOMA, ADRENAL GLAND: PHEOCHROMOCYTOMA OR MALIGNANT PHEOCHROMOCYTOMA, EAR): active; positive
